A short description of data set [1]: Protein binding in human plasma assessed as unbound fraction. In kind it is ADME, cell-free.
Data set [2] deals with Rattus norvegicus. The data set can be described thus: Oral bioavailability in rat at 3 mg/kg. The conditions noted are these: in vivo. In kind it is ADME, organism-based.
Data set [3] in a line: Cmax in rat at 3 mg/kg, po. In kind it is ADME, organism-based. More on the design: dose 3 mg/kg, route oral. The conditions noted are these: in vivo.
Data set [4] is described as follows: Apparent permeability from apical to basolateral side in human Caco2 cells. In kind it is ADME, cell-based. The conditions noted are these: Caco-2.
The nature of data set [5]: Solubility in pH 7.4 buffer. In kind it is physicochemical.
The test system of data set [6] is Rattus norvegicus. The data set can be described thus: AUC in rat at 3 mg/kg, po. The format is ADME, organism-based, Plasma. Further details: dose 3 mg/kg, route oral. The conditions noted are these: in vivo.
Data set [7] is described as follows: Volume of distribution at steady state in rat at 1 mg/kg, iv. In kind it is ADME, organism-based. The settings on record: in vivo, read-out: Vdss. More on the design: dose 1 mg/kg, route intravenous.
The target of data set [8] is Sphingosine 1-phosphate receptor 1 (Homo sapiens, UniProt P21453). The data set can be described thus: Antagonist activity against S1P1R in human U2OS cells expressing beta-arrestin/green fluorescent protein assessed as effect on S1P-induced beta-arrestin GFP relocalization incubated for 30 mins by Hoechst 33342 staining based receptor translocation assay. The format is cell-based.
Chain of Sphingosine 1-phosphate receptor 1 (P21453 whole entry): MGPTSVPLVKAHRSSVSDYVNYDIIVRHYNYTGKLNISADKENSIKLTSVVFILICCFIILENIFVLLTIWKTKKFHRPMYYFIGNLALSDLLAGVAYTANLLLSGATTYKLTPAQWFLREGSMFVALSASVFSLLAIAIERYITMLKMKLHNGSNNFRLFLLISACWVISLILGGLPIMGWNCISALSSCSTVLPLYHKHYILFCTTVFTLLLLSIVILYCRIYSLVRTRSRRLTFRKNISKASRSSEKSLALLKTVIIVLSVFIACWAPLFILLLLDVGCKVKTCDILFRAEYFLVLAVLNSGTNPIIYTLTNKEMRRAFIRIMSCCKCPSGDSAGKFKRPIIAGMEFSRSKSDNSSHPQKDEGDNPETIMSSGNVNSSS

The subject of the next data set is Liver microsome. Briefly: (§1) Intrinsic clearance in human liver microsomes. The conditions noted are these: microsomes. In kind it is ADME. For orientation: Liver microsomes are vesicles of endoplasmic reticulum, rich in cytochrome P450 enzymes.
Data set [9] can be described thus: Protein binding in rat plasma assessed as unbound fraction. The format is ADME, cell-free.
Data set [10] is described as follows: Half life in rat at 1 mg/kg, iv. The conditions noted are these: in vivo. More on the design: dose 1 mg/kg, route intravenous. The format is ADME, organism-based.
Data set [11] can be described thus: Lipophilicity, log D of the compound. The conditions noted are these: octanol/water. In kind it is physicochemical.
Data set [12] is described as follows: Intrinsic clearance in rat hepatocytes assessed per 10^6 cells. The format is ADME, cell-based, Hepatocyte. The conditions noted are these: read-out: CLH.
Data set [13] can be described thus: Apparent permeability from basolateral to apical side in human Caco2 cells. In kind it is ADME, cell-based. The conditions noted are these: Caco-2. On the technique in general: Caco-2 cells form a polarised layer with tight junctions and transporters.
The nature of data set [14]: Intrinsic clearance in human hepatocytes assessed per 10^6 cells. The format is ADME, cell-based, Hepatocyte. The conditions noted are these: read-out: CLH.
Data set [15] is described as follows: as §1. In kind it is ADME. The conditions noted are these: liver microsomes, read-out: CLH.

Broadly, the fraction unbound is free concentration divided by total concentration. As usually defined, the Cmax is the maximum level reached in the sampled fluid or tissue. By Papp A→B is commonly meant the apparent permeability from the apical to the basolateral side of a cell layer. What is called solubility is the dissolved amount per volume that the medium holds. High values mean much dissolved substance, low ones little dissolved substance. The term AUC denotes the area under the concentration-time curve, a measure of exposure. As a reminder, the EC50 is the concentration that produces a half-maximal response. In general, half-life refers to the time in which the quantity being followed falls by half. Read a high half-life as slow loss. The logD is the decadic logarithm of the distribution of all forms, ionised or not, between an organic phase and buffer at a given pH. Lower therefore signals lower lipophilicity. For orientation: Papp B→A means how fast a substance crosses the layer from the basolateral side.

≈ marks a conversion by molar mass, not a printed value.

Consider `CCc1nnc([C@@H](C)NS(=O)(=O)c2ccc(Cl)cc2)n1CC`, for which the unbound share (fraction unbound) in data set [1] is 0.34; in data set [9], 0.5. Moreover, the F in the data set with Rattus norvegicus [2] amounted to 11%. Further, the highest level in [3] (Cmax) was 1600 nM. Moreover, in data set [4], the apparent permeability from apical to basolateral (Papp A→B) came to 11.1 ×10⁻⁶ cm/s. The compound also gave a solubility in data set [5] above 600 µM. The AUC with Rattus norvegicus [6] turned out to be 2.7 µM·h. The Vd in [7] came to 0.7 L/kg. For the same compound, the concentration giving a half-maximal response (EC50) in [8] was determined as 250 nM. Moreover, the microsomal CLint in the data set with Liver microsome turned out to be 5.5 µL/min/mg. The compound also gave a half-life in data set [10] of 1.4 h. Besides, in [11], the log distribution coefficient (logD) was 1.4. Also, in [12], the hepatocyte CLint amounted to 10.2 µL/min/1e6 cells. Besides, the Papp B→A in data set [13] stood at 22.5 ×10⁻⁶ cm/s.

As for `CCc1nnc([C@H](C)NS(=O)(=O)c2ccc(Cl)cc2)n1CC`, the EC50 in data set [8] is above 33000 nM.

As to `C=CCSc1nnc(C(Cc2ccccc2)NS(=O)(=O)c2ccc(Cl)cc2)n1C` (racemic), the half-maximal effective concentration (EC50) in data set [8] turned out to be 1030 nM.

Regarding `Cn1cnnc1C(Cc1ccccc1)NS(=O)(=O)c1ccc(Cl)cc1` (racemic), in data set [8], the half-maximal effective concentration (EC50) turned out to be 22100 nM.

As for `Cc1nnc(C(Cc2ccccc2)NS(=O)(=O)c2ccc(Cl)cc2)n1C` (racemic), the half-maximal effective concentration (EC50) in [8] turned out to be 1830 nM.

Regarding `CCc1nnc(C(Cc2ccccc2)NS(=O)(=O)c2ccc(Cl)cc2)n1C` (racemic), the EC50 in data set [8] stood at 340 nM.

Consider `CCCCc1nnc(C(Cc2ccccc2)NS(=O)(=O)c2ccc(Cl)cc2)n1C` (racemic), for which the concentration for a half-maximal effect (EC50) in [8] came out at 3230 nM.

Consider `Cn1c(C(Cc2ccccc2)NS(=O)(=O)c2ccc(Cl)cc2)nnc1C(F)(F)F` (racemic), for which the EC50 in data set [8] turned out to be 3170 nM.

On to `CCn1c(C)nnc1C(Cc1ccccc1)NS(=O)(=O)c1ccc(Cl)cc1` (racemic), for which the concentration for a half-maximal effect (EC50) in data set [8] came to 460 nM.

Turning to `CCCn1c(C)nnc1C(Cc1ccccc1)NS(=O)(=O)c1ccc(Cl)cc1` (racemic), the EC50 in data set [8] turned out to be 2690 nM.

`Cc1nnc(C(Cc2ccccc2)NS(=O)(=O)c2ccc(Cl)cc2)n1C(C)C` (racemic): the half-maximal effective concentration (EC50) in data set [8] turned out to be 6340 nM.

Regarding `Cc1nnc(C(Cc2ccccc2)NS(=O)(=O)c2ccc(Cl)cc2)n1Cc1ccccc1` (racemic), in [8], the half-maximal effective concentration (EC50) is above 100000 nM.

For the compound `CCc1nnc(C(Cc2ccccc2)NS(=O)(=O)c2ccc(Cl)cc2)n1CC` (racemic), the EC50 in data set [8] came out at 220 nM.

As for `CCn1c(C)nnc1C(Cc1ccc(F)cc1)NS(=O)(=O)c1ccc(Cl)cc1` (racemic), the EC50 in [8] turned out to be 490 nM.

With `CCn1c(C)nnc1C(Cc1cccnc1)NS(=O)(=O)c1ccc(Cl)cc1` (racemic), the EC50 in data set [8] was 2370 nM.

As for `C=CCC(NS(=O)(=O)c1ccc(Cl)cc1)c1nnc(C)n1CC` (racemic), in [8], the EC50 came out at 2250 nM.

For `CCCC(NS(=O)(=O)c1ccc(Cl)cc1)c1nnc(C)n1CC` (racemic), the EC50 in data set [8] was 6190 nM.

Consider `CCn1c(C)nnc1C(CC1CC1)NS(=O)(=O)c1ccc(Cl)cc1` (racemic), for which the half-maximal effective concentration (EC50) in [8] came to 7690 nM.

As to `CCn1c(C)nnc1C(C)NS(=O)(=O)c1ccc(Cl)cc1` (racemic), the hepatocyte CLint in [14] is below 2 µL/min/1e6 cells. The compound also yielded a solubility in data set [5] of 380 µM (≈ 125 µg/mL). Further, in data set [8], the EC50 worked out at 670 nM. For the same compound, in data set [15], the microsomal CLint was below 5 µL/min/mg.

Turning to `CCc1nnc(C(Cc2ccccc2)NS(=O)(=O)c2ccc(Cl)cc2)o1` (racemic), in [8], the EC50 was 15200 nM. Further, the microsomal CLint in [15] was above 100 µL/min/mg.

For `Cc1ncc(C(Cc2ccccc2)NS(=O)(=O)c2ccc(Cl)cc2)n1C` (racemic), the EC50 in [8] was above 100000 nM. The microsomal CLint in data set [15] is above 100 µL/min/mg.

For `Cc1cnc(C(Cc2ccccc2)NS(=O)(=O)c2ccc(Cl)cc2)n1C` (racemic), the EC50 in [8] was 1610 nM. Also, in data set [15], the microsomal CLint was above 100 µL/min/mg.

As for `CCc1onc(C(C)NS(=O)(=O)c2ccc(Cl)cc2)c1CC` (racemic), the EC50 in data set [8] came to 3030 nM. The microsomal CLint in data set [15] was above 100 µL/min/mg.

Turning to `CCc1snc(C(C)NS(=O)(=O)c2ccc(Cl)cc2)c1CC` (racemic), the concentration giving a half-maximal response (EC50) in data set [8] was found to be 720 nM. Further, in data set [15], the microsomal CLint was above 100 µL/min/mg.

As to `CCc1[nH]nc(C(C)NS(=O)(=O)c2ccc(Cl)cc2)c1CC` (racemic), the EC50 in [8] came out at 310 nM. For the same compound, the microsomal CLint in data set [15] is above 100 µL/min/mg.

Consider `CCc1nnc(C(C)NS(=O)(=O)c2ccc(Cl)cc2)n1CC` (racemic), for which the EC50 in data set [8] worked out at 410 nM.

The values are drawn from ChEMBL document CHEMBL3399941, “Discovery of heterocyclic sulfonamides as sphingosine 1-phosphate receptor 1 (S1P1) antagonists” (Bioorg Med Chem Lett, 2015).
